# Measurements from PMC6627486, “Ipomoeassin F Binds Sec61α to Inhibit Protein Translocation” (Journal of the American Chemical Society, 2019).
# Key:
# [1] = system: HCT116; assay: cells; assay type: cell-based; conditions: Homo sapiens, HCT-116; HCT116, 72 h, Alamar Blue, assayed separately; read-out: Cytotoxicity (IC50)
# Method: AlamarBlue Cytotoxicity Assay
# MDA-MB-231, MCF-10A and HCT116. Viable cells were counted with a hemocytometer immediately before each experiment . Experiments were done in triplicate. First, 100 μL of MDA-MB-231 cells or MCF-10A cells at the density of 50,000 cells/mL was seeded in a 96-well plate (5,000 cells/well) and then incubated at 37 °C and 5% CO2 for 24 h. The compounds were dissolved in DMSO (dimethyl sulfoxide) to make drug stocks (10 mM). The stock solutions were diluted with the complete DMEM high glucose culture medium to make a series of gradient fresh working solutions right before each test. Subsequently, the cells were treated with 100 μL of the freshly made gradient working solution in a total volume of 200 μL/well for 72 h. After that, the media were discarded and 200 μL of the fresh complete medium containing 10% of AlamarBlue (resazurin) stock solution was added to each well. The plate was then incubated at 37 °C and 5% CO2 for another 3 h. Emission of each well at 620 nm was detected by a microplate reader (BioTek Synergy H1) at excitation 580 nm. For HCT116 WT and mutant lines, cells were seeded at 1000 cells/ well in complete McCoys medium. Compounds were diluted from a DMSO stock into culture medium as described above. Cells were treated for 96 h, then viability measured with AlamarBlue, detected using the conditions described but with a BMG Fluostar Optima Microplate Reader. The percentage of viability compared to the negative control (DMSO-treated cells) was determined. […]
# HCT116 and HEK293T. Viable cells were counted using an automated cell counter (BioRad TC20) before each experiment. […] Emission of each well at 620 nm was detected by a microplate reader (Perkin Elmer EnSpire) at excitation 580 nm. The percentage of viability compared to the negative control (DMSO -treated cells) was determined. […]
# Figure S1. […] (C) HCT116 colon carcinoma cells were treated with increasing concentrations of analogues 8, 14, 15, CT8, ipomoeassin F or carrier (0.1% DMSO) and cell viability was assessed at 72 h by the Alamar Blue assay (mean ± S.D., n = 4). […]
# [2] = system: MDA-MB-231 cells; assay: Live cell imaging with fluorescent probe 12; assay type: cell-based, human; conditions: 30 min preincubation, 100-fold excess competitor
# Method: MDA-MB-231 cells were seeded on fibronectin-coated coverslips at 70% confluency in a 48-well plate and cultured at 37 °C and 5% CO2. After 24 h, culture medium was replaced with fresh medium containing a 20 µM competitor or an equal volume of DMSO vehicle for 30 min at 37 °C and 5% CO2, followed by addition of 0.2 µM (final concentration) fluorescent probe 12. After 1 h incubation at 37 °C and 5% CO2, the coverslips were mounted onto a glass slide with a mounting medium with or without 0.5 µg/ml DAPI.
# The fluorescent images were acquired with a confocal microscope (Leica TCS SP5) using 405 nm excitation and 562 nm excitation. For the ER co-localization studies, 1 uM ER-Tracker™ Blue-White DPX was added to the medium after 1 h incubation with probe 12. After 5 min incubation, the coverslips were mounted onto a glass slide and the images were acquired as described above.
# CT7 photo-affinity labeling and click chemistry were done as previously described.14 Briefly, SRMs (sheep rough microsomes, isolated as described in reference15) containing 100 nM Sec61 were treated with 10 µM ipomoeassin F/mycolactone or 1% DMSO for 30 min at 0°C, followed by incubation with 100 nM CT7 for 10 min RT. Samples were then photolyzed for 10 min and crosslinked proteins were detected by click chemistry, SDS-PAGE, and in-gel fluorescent scanning (Typhoon Trio, GE Healthcare). […]
# [3] = system: several cancer-derived cell lines; parameters: method as in PMID 19697385; conditions: cited from earlier work
compound,measurement,setting,value
C/C=C(\C)C(=O)O[C@@H]1[C@@H](O)[C@@H]2O[C@H]3[C@H](O[C@@H](CCCCC)CCCCCCC(=O)CCC(=O)OC[C@@H](O2)[C@H]1OC(=O)/C=C/c1ccccc1)O[C@H](C)[C@H](OC(C)=O)[C@@H]3O [ipomoeassin F],IC50,[1],8 nM
same,effect of competitor on fluorescence signal of 12,[2],almost completely abolished
same,IC50 values against several cancer-derived cell lines,[3],single-digit nanomolar
